Earlier results in patent publication US20020025537A1, “High-throughput methods for generating and screening compounds that affect cell viability” (priority 2000, published 2002).
Bridge positions count the residues as written; N and C are the ends. Ends that are not written are not given here.

Tests used:
[1] = tested on: Gram negative and Gram positive pathogenic bacteria, including strains of methicillin resistant S. aureus and vancomycin resistant E. faecalis; conditions: in vitro; Gram negative and Gram positive pathogens incl. MRSA and vancomycin resistant E. faecalis
[2] = tested on: methicillin resistant S. aureus and vancomycin resistant E. faecalis; conditions: intravenous administration

protegrin-1 (RGGRLCYCRRRFCVCVGR-NH2; disulfide 8-13, 6-15; ends not checked; UniProt P32194 131-148, looked up) [PG-1, a native peptide obtained from porcine leukocytes]
bactericidal activity [1]: rapid bactericidal activity
toxicity to the mice [2]: without apparent toxicity
protection from lethal challenges ([2]; mice, challenge with MRSA or vancomycin resistant E. faecalis): protected mice from lethal challenges
